Data published in PMC11224556, “Next-generation of BBQ analogues that selectively target breast cancer” (Frontiers in Chemistry, 2024).
Like-named read-outs stand apart in the source and are kept apart here.

Key:
Assay type in all cases: cell-based, human
[1] = test system: A2780 (ovary) cells; test: MTT growth inhibition assay (72 h)
From the text: (§1) Each BBQ analogue, 2-14 was screened for their growth inhibition ability (GI50) in a broad panel of cancer cell lines and a non-cancer breast cell line (MCF10A), using the MTT growth inhibition assay (Table 1) ([Baker et al., 2021b]). The cancer panel comprised HT29 (colorectal), U87 (brain), SJ-G2 (brain), A2780 (ovary), Du145 (prostate), BE2-C (neuronal), MIA (pancreas), H460 (lung, ER+), A431 (vulva, ER+ (estrogen receptor positive)), and a wide selection of breast cancer cell lines with varying receptor status including MCF-7 (ER + luminal A), T47D (ER/PR+ (progesterone receptor positive)luminal A), ZR-75-1 (ER/PR + luminal A), BT-474 (ER/PR/HER2+ luminal B), SKBR-3 (HER2+), MDA-MB-468, BT20, and MDA-MB-231 (basal, triple negative (TN) for ER, PR, and HER2).
(§2) Stock solutions were prepared as follows and stored as 20 mM DMSO solutions at −20 °C. All cell lines were cultured in a humidified atmosphere 5% CO2 at 37 °C. The cancer cell lines were maintained in Dulbecco’s modified Eagle’s medium (DMEM) (Trace Biosciences, Australia) supplemented with 10% foetal bovine serum (FBS), 10 mM sodium bicarbonate, penicillin (100 IU/mL), streptomycin (100 μg/mL), and glutamine (4 mM). The non-cancer MCF10A cell line was cultured in DMEM:F12 (1:1) cell culture media, 5% heat inactivated horse serum, supplemented with penicillin (50 IU/mL), streptomycin (50 μg/mL), 20 mM Hepes, L-glutamine (2 mM), epidermal growth factor (20 ng/mL), hydrocortisone (500 ng/mL), cholera toxin (100 ng/mL), and insulin (10 μg/mL). The AhR reporter cell line HT29-Lucia™ (Invivogen, United States) was maintained in DMEM supplemented with 10% heat inactivated FBS, L-glutamine (2 mM), penicillin (100 IU/mL), streptomycin (100 μg/mL), 100 μg/mL Normocin™, and 100 μg/mL of the selective antibiotic Zeocin™. All cell lines were purchased from the American Type Culture Collection (ATCC), except for A2780 and A431 which were from the European Collection of Authenticated Cell Cultures (ECACC), and SJ-G2 cell line which was from Dr Mary Danks, St Jude Children’s Research hospital, Memphis, TN.
(§3) Cells in logarithmic growth were transferred to 96-well plates. Cytotoxicity was determined by plating cells in duplicate in 100 μL medium at a density of 2,500–4,000 cells/well in 96 well plates. On day 0, (24 h after plating) when the cells were in logarithmic growth 100 μL medium with or without the test agent was added to each well. After 72 h drug exposure growth inhibitory effects were evaluated using the MTT (3-[4,5-dimethylthiazol-2-yl]-2,5-diphenyltetrazolium bromide) assay with absorbance read at 540 nm. An eight-point dose response curve was produced, using MS Excel software. From these dose-response curves, the GI50 value was calculated, representing the drug concentration at which cell growth is 50% inhibited based on the difference between the optical density values on day 0 and those at the end of drug exposure ([Bradshaw et al., 2008]; [Zhang et al., 2009]). Each data point was conducted in duplicate and the mean ± S.E.M. calculated from four to five replicates (n = 4 or 5), which were performed on separate occasions and separate cell line passages. Where shown, significant test results were determined using T-test analysis at p < 0.01 and p < 0.05 with a two tail distribution.

[2] = test system: A431 (vulva/skin) cells; test: MTT growth inhibition assay (72 h)
From the text: as §1, §2, §3

[3] = test system: BE2-C (neuronal) cells; test: MTT growth inhibition assay (72 h); conditions: Neuron
From the text: as §1, §2, §3

[4] = test system: BT20 breast cancer cells; test: MTT growth inhibition assay (72 h)
From the text: as §1, §2, §3

[5] = test system: BT474 breast cancer cells; test: MTT growth inhibition assay (72 h)
From the text: as §1, §2, §3

[6] = test system: Du145 (prostate) cells; test: MTT growth inhibition assay (72 h)
From the text: as §1, §2, §3

[7] = test system: H460 (lung) cells; test: MTT growth inhibition assay (72 h)
From the text: as §1, §2, §3

[8] = test system: HT29 (colorectal) cells; test: MTT growth inhibition assay (72 h); conditions: HT29, Colon
From the text: as §1, §2, §3

[9] = test system: MCF-7 breast cancer cells; test: MTT growth inhibition assay (72 h)
From the text: as §1, §2, §3

[10] = test system: MCF10A normal breast cells; test: MTT growth inhibition assay (72 h)
From the text: as §1, §2, §3

[11] = test system: MDA-MB-231 breast cancer cells; test: MTT growth inhibition assay (72 h); conditions: MDA-MB-231, Breast (TN)
From the text: as §1, §2, §3

[12] = test system: MDA-MB-468 breast cancer cells; test: MTT growth inhibition assay (72 h); conditions: MDA-MB-468, Breast (TN)
From the text: as §1, §2, §3

[13] = test system: MIA (pancreas) cells; test: MTT growth inhibition assay (72 h)
From the text: as §1, §2, §3

[14] = test system: SJ-G2 (brain) cells; test: MTT growth inhibition assay (72 h); conditions: SJ-G2, Brain (GBM)
From the text: as §1, §2, §3

[15] = test system: SKBR3 breast cancer cells; test: MTT growth inhibition assay (72 h)
From the text: as §1, §2, §3

[16] = test system: U87 (brain) cells; test: MTT growth inhibition assay (72 h); conditions: U87, Brain (GBM)
From the text: as §1, §2, §3

[17] = test system: ZR-75-1 breast cancer cells; test: MTT growth inhibition assay (72 h); conditions: ZR-75-1, Breast (ER/PR)
From the text: as §1, §2, §3

[18] = test system: broad panel of cancer cell lines and non-cancer breast cell line MCF10A; test: MTT growth inhibition: GI50 ranges and selectivity across the cell line panel; conditions: across the cell lines examined (Table 1)
From the text: as §1, §2, §3

[19] = test system: T47D breast cancer cells; test: MTT growth inhibition assay (72 h); conditions: Breast (ER/PR)
From the text: as §1, §2, §3

Compound: 3-Nitro-7H-benzo[de]benzo[4,5]imidazo[2,1-a]isoquinolin-7-one (11a) and 4-nitro-7H-benzo[de]benzo[4,5]imidazo[2,1-a]isoquinolin-7-one (11b) [Compound 11]
- GI50 [1]: 0.01 ± 0.003 µM
- GI50 ([2]; A431, Skin (ER)): 0.088 ± 0.031 µM
- GI50 [3]: 0.74 ± 0.13 µM
- GI50 ([4]; BT20, Breast (TN)): 0.0084 ± 0.004 µM
- GI50 ([5]; BT474, Breast (ER/PR/HER2)): 0.15 ± 0.053 µM
- GI50 [6]: 0.32 ± 0.049 µM
- GI50 ([7]; H460, Lung (ER)): 0.00019 ± 0.0001 µM
- GI50 [8]: 0.3 ± 0.11 µM
- GI50 ([9]; MCF-7, Breast (ER)): 0.0065 ± 0.0038 µM
- GI50 [10]: 0.0031 ± 0.002 µM
- GI50 [11]: 2.1 ± 0.29 µM
- GI50 [12]: 0.0015 ± 0.0008 µM
- GI50 [13]: 1.4 ± 0.45 µM
- GI50 [14]: 0.61 ± 0.14 µM
- GI50 ([15]; SKBR3, Breast (HER2)): 0.036 ± 0.006 µM
- GI50 [16]: 0.55 ± 0.11 µM
- GI50 [17]: 0.0027 ± 0.0022 µM
- fold more potent than head group substituted analogues 3, 4, 6, 7, 8 and 9 [18]: > 10 fold

Compound: O=C(O)c1ccc2c3c1cccc3c(=O)n1c3ccccc3nc21 [Compound 14, reference compound]
- GI50 ([1]; Homo sapiens): 12 ± 0.91 µM
- GI50 ([2]; Homo sapiens, A-431, A431, Skin (ER)): 28 ± 5.1 µM
- GI50 ([3]; Homo sapiens, BE(2)-C): 6.9 ± 1.6 µM
- GI50 ([4]; Homo sapiens, BT-20, BT20, Breast (TN)): 50 µM
- GI50 ([5]; Homo sapiens, BT-474, BT474, Breast (ER/PR/HER2)): > 50 µM
- GI50 ([6]; Homo sapiens, DU-145): 21 ± 2 µM
- GI50 ([7]; Homo sapiens, NCI-H460, H460, Lung (ER)): 20 ± 0.33 µM
- GI50 ([9]; Homo sapiens, MCF7, MCF-7, Breast (ER)): > 50 µM
- GI50 ([10]; Homo sapiens, MCF-10A): 15 ± 0.58 µM
- GI50 ([11]; Homo sapiens): 50 µM
- GI50 ([12]; Homo sapiens): 6.13 ± 3.05 µM
- GI50 ([13]; Homo sapiens): 20 ± 0.67 µM
- GI50 ([14]; Homo sapiens): 13 ± 1.2 µM
- GI50 ([15]; Homo sapiens, SK-BR-3, SKBR3, Breast (HER2)): 21 ± 0.67 µM
- GI50 ([19]; Homo sapiens): 16 ± 0.58 µM
- GI50 ([16]; Homo sapiens): 25 ± 1.7 µM
- GI50 ([17]; Homo sapiens): 24 ± 3.3 µM

Compound: 10-Methyl-7H-benzo[de]benzo[4,5]imidazo[2,1-a]isoquinolin-7-one (7a) and 11-methyl-7H-benzo[de]benzo[4,5]imidazo[2,1-a]isoquinolin-7-one (7b) [Compound 7]
- GI50 [1]: 5.2 ± 0.63 µM
- GI50 ([2]; A431, Skin (ER)): 4.8 ± 0.7 µM
- GI50 [3]: 4.9 ± 0.09 µM
- GI50 ([4]; BT20, Breast (TN)): 5.2 ± 2 µM
- GI50 ([5]; BT474, Breast (ER/PR/HER2)): > 50 µM
- GI50 [6]: 37 ± 7.8 µM
- GI50 ([7]; H460, Lung (ER)): 45 ± 8 µM
- GI50 [8]: 5 ± 0.07 µM
- GI50 ([9]; MCF-7, Breast (ER)): 3.6 ± 0.4 µM
- GI50 [10]: 4.7 ± 0.12 µM
- GI50 [11]: 25 ± 7.1 µM
- GI50 [12]: 0.35 ± 0.13 µM
- GI50 [13]: 8.1 ± 0.97 µM
- GI50 [14]: > 50 µM
- GI50 ([15]; SKBR3, Breast (HER2)): 1.2 ± 0.93 µM
- GI50 [19]: 3.1 ± 0.17 µM
- GI50 [16]: 17 ± 2.7 µM
- GI50 [17]: 0.19 ± 0.045 µM
